Here are results for one compound from patent publication US20130136778A1, “PTEROSTILBENE (PTER) FOR USE IN THE PREVENTION AND/OR TREATMENT OF SKIN DISEASES, DAMAGES OR INJURIES” (GREEN MOLECULAR, S.L., priority 2009, published 2013).

The test system of series [1] is SKH-1 mice. Nature of the series: Photocarcinogenesis: chronic exposure to UV-B, precancerous lesions/tumors per mouse. It is filed as in vivo. The settings on record: after 30 weeks of chronic exposure to UV-B. From the text:
The role of UV-B radiation in tumor formation is well known. The continuous exposure to UV-B promotes the formation of oxidative/nitrosative stress, along with alterations in DNA, proteins, etc. that activates various transcription factors (among them NF-κB and AP-1), increase in the telomerase activity, stress, etc. which in turn induces carcinogenesis.
The mice chosen for this study were SKH-1.
The protocol used was the standardized protocol, whereby several mice were irradiated three times per week with a dose of 180 mJ/cm^2 with exposures for 24 weeks; however, […], in order to obtain more evidence of the photoprotector effect on the different treatments used.
The dose of exposure was 180 mJ/cm2, since it had been determined in previous trials that this was the minimal erythemic dose (MED) for this type of rodent.
A range of different commercial photoprotectors were included in this study: • Vichy: Capital Soleil SPF-50+(Vichy Laboratoires). • Isdin: Photoprotector Isdin Extrem (SPF-40 (Isdin SA) • Heliocare: Heliocare gel Protection Ultra 90 (Difa Cooper S.P.A.)
Both the reference compounds and the ones subject of this study were applied to the back of the mice for 20 minutes prior to their exposure to UV-B. […]
During the photocarcinogenesis process, the presence of different tumors was followed and quantified throughout the process. […]

A short description of series [2]: Absorption spectrum of polyphenols (mechanical filter capacity). It is filed as physicochemical. Particulars: 1 mM in pure ethanol, 200-800 nm. As for the experimental part:
A solution of 1 mM of each polyphenol was prepared (PTER, Resveratrol and QUER) in absolute ethanol (HPLS quality; Quima) and the absorption spectrum was studied between 200 and 800 nm using a Multiskan Spectrum (ThermoScientific).
With the purpose of studying the capacity of the polyphenols used in this study, we decided to evaluate the absorption of light throughout the ultraviolet light spectrum as shown in FIG. 13.

Series [3] relates to SKH-1 mice. As to the kind of experiment: Experimental atopic dermatitis induced by TNCB. Type of series: in vivo. On the procedure:
Also, on certain specific days prior to sacrificing them, the mice were assessed by a veterinarian who analyzed the skin lesions, qualifying them in function of: • Erythema: redness of the skin conditioned by inflammation due to the excess of blood irrigation by the dilation of blood vessels. • Excoriation: or irritation of the skin with flaky aspect, increase in the descaling of the skin which could result in hyperkeratosis. • The depth of the lesion that could reach the dermis producing soars or ulcers. Each variable was evaluated on a scale of 0-4, 0, for none; 1, for mild; 2, for moderate; 3, marked; and 4, very marked. The addition of the 3 values of each mouse indicated the degree of inflammation. […] Furthermore, the continuous administration of TNCB ointment increased the production of T-lymphocytes, mastocytes and IgE in the serum, as it occurs among human patients with atopic dermatitis. […] Nonetheless, the objective evaluation of these characteristics is complex, and the measuring of the loss of transepidermal water (PTEA or TEWL) assessed through the Tewameter TM 210 system (CK electronics, Germany) is considered an indicator of the functions of cutaneous “barriers” (g/h/cm2). […] TEWL readings were performed continuously until the metrics were stabilized, which can produce between 30-60 seconds of readings.

The test system of series [4] is SKH-1 mice. As to the kind of experiment: Experimental psoriasis induced by TPA. Type of series: in vivo.
Protocol: For the induction of psoriasis, the agent “12-O-tetradecanoylphorbol-13 acetate” (TPA) was used.
Since our objective was to assess the progress of the lesions caused by psoriasis in combination with the use of polyphenols, a model of continuous exposure and a weaker concentration of TPA were used, on a daily dose of 2 nmoles of TPA over a period of a week, which allowed us to observe the progress of the psoriasis.
The induction was performed with 2 nmol TPA/mouse on an area of 1 cm^2, applying 10 μL of the 200 μM solution in acetone. This application protocol was carried out taking into account that when applying 20 μL as stated in the model, the volume increased considerably and it lost its concentration, therefore it was decided to make it more concentrated.
As a standard treatment, Dexamethasone was used, (from Sigma Solution 25 mM in acetone). The administration of the standard treatment and the products to be tested were given 30 minutes prior to the application of TPA, both beginning on the same day.
The groups, of 6 mice, for this assessment were: • Not treated. • Reference compound: 0.5 μmoles of Dexamethasone (200 μL of one solution 25 mM in acetone). • Medium: 200 μl of vacuumed Liposomes. • Resveratrol: 200 μL of Resveratrol Liposomes (10 μmol in total). • PTER: 200 μL of PTER Liposomes (10 μmol in total). • QUER: 200 μL of QUER Liposomes (10 μmol in total). • PTER+QUER:: 200 μL of PTER Liposomes+QUER (10 μmol in total).
At 24 hours (day 7) after the last administration of the different treatments and TPA, 3 mice from each group were sacrificed and their skin fixed with 4% PFA. The remaining mice were kept under the treatment with no exposure to TPA, to verify if the skin recovered faster on the treatment than on its own. At 24 hours (day 9) after the last administration of the different treatments the rest of the mice were sacrificed and their skin fixed with 4% PFA.
The flaky aspect of the skin was quantified in a scale of 0-3, being 0, nothing; 1, mild; 2, moderate; 3, severe.

For `COc1cc(/C=C/c2ccc(O)cc2)cc(OC)c1` [PTER, 3,5-dimethoxy-4′-hydroxy-trans-resveratrol], in the series with SKH-1 mice [1], the mice presenting lesions came to 10%. In addition, the “absorption of light, range of maximum absorption” value in series [2] is “peaks or maximum absorption in the range of Ultraviolet B”. Moreover, the “increase in the skinfold 24 hours after the first administration of TNCB” value with SKH-1 mice [3] (FIG. 19, 10 μmoles polyphenols, 0.5 μmoles dexamethasone 24 h before 1% TNCB) is given as “decreased their inflammatory effect due to the TNCB agent”. Further, the “index of lesions (macroscopic assessment)” value in the series on SKH-1 mice [3] (TNCB model, up to 4 applications of TNCB) is “produced less serious lesions than with the use of dexamethasone or with respect to the lack of treatment”. Also, the “index of excoriation or descaling (scale 0-3)” value with SKH-1 mice [4] (24 hours after 7 administrations of TPA) was “fewer indexes of excoriation or descaling”. Moreover, the “increase of skinfold throughout the procedure” value in the series on SKH-1 mice [4] (FIG. 23, 6 consecutive days, treatment 30 min prior to 2 nmol TPA) was “an important decrease in the increase of skinfolds”. In the series with SKH-1 mice [4] (FIG. 24, treatment 30 min prior to 2 nmol TPA), the “increase in the skinfold 24 hours after the first administration of TPA” value was “significantly diminished the appearance of edema”. For the same compound, in the series with SKH-1 mice [4] (FIG. 25), the “skinfold after 3 administrations of TPA” value is recorded as “produce a diminishing effect on the inflammation produced by TPA”. Further, the “histological analysis of the lesions” value with SKH-1 mice [4] (FIG. 28, hematoxylin-eosin, TPA daily over 7 days) was “no signs of papillomatosis, but there was acanthosis due to a massive proliferation”.
